Where a name gives a salt, the structure may show the parent alone.
Assays:
[1] = molecular target: T1, 5-hydroxytryptamine receptor 2A (Homo sapiens, UniProt P28223); assay: Agonist activity at human 5HT2A receptor expressed in HEK293 cells assessed as calcium flux by FLIPR assay
[2] = molecular target: T2, 5-hydroxytryptamine receptor 2B (Homo sapiens, UniProt P41595); assay: Agonist activity at human 5HT2B receptor expressed in HEK293 cells assessed as calcium flux by FLIPR assay
[3] = molecular target: T3, 5-hydroxytryptamine receptor 2C (Homo sapiens, UniProt P28335); assay: Agonist activity at human 5HT2C receptor expressed in HEK293 cells assessed as calcium flux by FLIPR assay
T3 sequence (P28335 whole entry): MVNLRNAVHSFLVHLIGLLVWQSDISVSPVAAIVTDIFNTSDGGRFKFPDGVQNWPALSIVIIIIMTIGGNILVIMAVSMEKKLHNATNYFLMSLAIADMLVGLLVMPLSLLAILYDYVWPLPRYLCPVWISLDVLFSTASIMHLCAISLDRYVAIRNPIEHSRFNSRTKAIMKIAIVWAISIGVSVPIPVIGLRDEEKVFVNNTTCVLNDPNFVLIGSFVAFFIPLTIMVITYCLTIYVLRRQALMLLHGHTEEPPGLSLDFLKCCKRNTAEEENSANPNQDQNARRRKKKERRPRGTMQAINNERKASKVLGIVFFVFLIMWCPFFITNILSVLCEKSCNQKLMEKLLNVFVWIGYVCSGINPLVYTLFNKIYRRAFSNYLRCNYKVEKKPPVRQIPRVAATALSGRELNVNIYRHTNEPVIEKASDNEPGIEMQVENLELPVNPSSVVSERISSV

[4] = molecular target: Sodium-dependent dopamine transporter (Homo sapiens, UniProt Q01959); assay: Displacement of [3H]WIN-35428 from DAT
Chain of Sodium-dependent dopamine transporter (Q01959 whole entry): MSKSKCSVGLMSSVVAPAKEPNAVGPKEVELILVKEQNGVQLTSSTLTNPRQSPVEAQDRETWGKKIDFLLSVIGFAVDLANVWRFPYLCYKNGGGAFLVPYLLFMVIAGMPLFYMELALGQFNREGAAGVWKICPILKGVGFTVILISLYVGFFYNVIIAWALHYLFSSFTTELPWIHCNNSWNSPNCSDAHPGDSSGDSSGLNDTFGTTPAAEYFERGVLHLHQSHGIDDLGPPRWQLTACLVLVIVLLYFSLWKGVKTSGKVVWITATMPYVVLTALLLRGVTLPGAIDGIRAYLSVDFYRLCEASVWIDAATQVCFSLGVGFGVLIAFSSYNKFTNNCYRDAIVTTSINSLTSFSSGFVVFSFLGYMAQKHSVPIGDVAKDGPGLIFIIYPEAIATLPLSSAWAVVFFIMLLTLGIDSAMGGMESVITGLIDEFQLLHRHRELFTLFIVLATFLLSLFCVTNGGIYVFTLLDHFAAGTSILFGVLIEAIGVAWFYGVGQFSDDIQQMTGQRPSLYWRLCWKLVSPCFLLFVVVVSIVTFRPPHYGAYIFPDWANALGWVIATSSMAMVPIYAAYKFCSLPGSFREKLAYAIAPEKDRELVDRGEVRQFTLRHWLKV

[5] = molecular target: T2, 5-hydroxytryptamine receptor 2B; assay: Displacement of [3H]LSD from human 5HT2B receptor
[6] = molecular target: T1, 5-hydroxytryptamine receptor 2A; assay: Displacement of [3H]ketanserin from human 5HT2A receptor
[7] = molecular target: Sodium-dependent noradrenaline transporter (Homo sapiens, UniProt P23975); assay: Displacement of [3H]nisoxetine from NET
Chain of Sodium-dependent noradrenaline transporter (P23975 whole entry): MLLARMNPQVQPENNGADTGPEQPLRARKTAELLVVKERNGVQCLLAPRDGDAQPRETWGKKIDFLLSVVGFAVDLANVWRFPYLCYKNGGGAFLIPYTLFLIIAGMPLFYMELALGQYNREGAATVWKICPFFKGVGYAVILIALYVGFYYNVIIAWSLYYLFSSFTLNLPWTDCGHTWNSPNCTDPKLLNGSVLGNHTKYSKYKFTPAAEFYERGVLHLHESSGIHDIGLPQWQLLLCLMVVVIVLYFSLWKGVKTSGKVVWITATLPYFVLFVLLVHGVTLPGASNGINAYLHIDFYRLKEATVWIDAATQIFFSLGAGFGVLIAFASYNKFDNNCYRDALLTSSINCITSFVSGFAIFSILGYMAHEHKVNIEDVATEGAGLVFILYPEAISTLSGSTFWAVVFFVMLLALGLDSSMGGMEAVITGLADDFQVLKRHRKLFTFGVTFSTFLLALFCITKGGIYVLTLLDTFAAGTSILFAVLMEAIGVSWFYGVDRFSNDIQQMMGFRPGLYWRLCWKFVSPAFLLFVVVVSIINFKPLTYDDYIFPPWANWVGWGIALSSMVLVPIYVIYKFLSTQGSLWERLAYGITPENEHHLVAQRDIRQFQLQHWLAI

[8] = molecular target: Sodium-dependent serotonin transporter (Homo sapiens, UniProt P31645); assay: Displacement of [3H]citalopram from SERT
Chain of Sodium-dependent serotonin transporter (P31645 whole entry): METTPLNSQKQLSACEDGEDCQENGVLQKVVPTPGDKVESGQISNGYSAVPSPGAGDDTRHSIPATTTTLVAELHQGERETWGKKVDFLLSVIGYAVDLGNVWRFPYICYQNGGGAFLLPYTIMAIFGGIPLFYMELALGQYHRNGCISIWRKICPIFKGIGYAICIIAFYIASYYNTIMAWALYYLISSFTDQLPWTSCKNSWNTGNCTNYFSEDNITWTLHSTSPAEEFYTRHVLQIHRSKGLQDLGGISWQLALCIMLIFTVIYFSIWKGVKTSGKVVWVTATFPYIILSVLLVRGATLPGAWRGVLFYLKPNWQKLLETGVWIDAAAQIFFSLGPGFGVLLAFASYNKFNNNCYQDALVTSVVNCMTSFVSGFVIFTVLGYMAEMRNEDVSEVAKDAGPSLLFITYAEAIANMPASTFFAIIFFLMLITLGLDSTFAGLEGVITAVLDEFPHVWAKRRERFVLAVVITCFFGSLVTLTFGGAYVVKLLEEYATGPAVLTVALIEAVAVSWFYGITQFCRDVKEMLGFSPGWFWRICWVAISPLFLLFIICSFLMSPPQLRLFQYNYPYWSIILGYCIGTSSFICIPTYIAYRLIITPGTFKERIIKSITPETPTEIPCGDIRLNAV

[9] = molecular target: T3, 5-hydroxytryptamine receptor 2C; assay: Displacement of [3H]mesulergine from 5HT2C receptor

T2 sequence (P41595 whole entry): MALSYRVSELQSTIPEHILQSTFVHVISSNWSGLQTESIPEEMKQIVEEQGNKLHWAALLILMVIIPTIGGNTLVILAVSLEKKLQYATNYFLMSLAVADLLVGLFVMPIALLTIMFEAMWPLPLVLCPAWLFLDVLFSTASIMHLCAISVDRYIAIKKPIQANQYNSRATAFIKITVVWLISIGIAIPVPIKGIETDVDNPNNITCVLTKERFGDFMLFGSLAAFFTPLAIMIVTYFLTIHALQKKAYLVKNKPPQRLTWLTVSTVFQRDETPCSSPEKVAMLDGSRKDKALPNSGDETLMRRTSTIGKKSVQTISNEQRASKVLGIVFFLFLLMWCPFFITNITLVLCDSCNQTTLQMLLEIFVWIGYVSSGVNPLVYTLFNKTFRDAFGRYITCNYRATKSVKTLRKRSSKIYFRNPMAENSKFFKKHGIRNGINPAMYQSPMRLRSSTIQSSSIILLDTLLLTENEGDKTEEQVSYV
T1 sequence (P28223 whole entry): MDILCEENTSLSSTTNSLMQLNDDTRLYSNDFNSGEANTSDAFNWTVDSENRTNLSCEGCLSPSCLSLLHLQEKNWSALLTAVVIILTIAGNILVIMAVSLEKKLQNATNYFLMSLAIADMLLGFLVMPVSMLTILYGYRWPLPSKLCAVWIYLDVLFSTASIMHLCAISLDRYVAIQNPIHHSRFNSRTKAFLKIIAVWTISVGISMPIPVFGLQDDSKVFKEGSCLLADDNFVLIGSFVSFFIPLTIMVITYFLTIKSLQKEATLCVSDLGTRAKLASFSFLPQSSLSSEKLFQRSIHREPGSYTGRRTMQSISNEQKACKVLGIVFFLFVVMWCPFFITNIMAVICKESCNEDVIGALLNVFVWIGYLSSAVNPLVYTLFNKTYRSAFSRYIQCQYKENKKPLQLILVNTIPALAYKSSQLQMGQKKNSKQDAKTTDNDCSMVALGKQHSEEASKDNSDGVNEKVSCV

Row | Compound | EC50 [1] | EC50 [2] | EC50 [3] | also measured
1 | NC[C@H]1C[C@@H]1c1cccc(F)c1 (relative stereo) [trans-[2-(3-Fluorophenyl)cyclopropyl]methylamine Hydrochloride] | 0.437 µM | 0.0036 µM | 0.0033 µM | –
2 | NC[C@H]1C[C@@H]1c1cccc(O)c1 (relative stereo) [trans-[2-(3-Hydroxyphenyl)cyclopropyl]methylamine Hydrochloride] | 0.247 µM | 0.0055 µM | 0.0033 µM | –
3 | NC[C@H]1C[C@@H]1c1ccc2ccccc2c1 (relative stereo) [trans-(2-Naphthalen-2-ylcyclopropyl)methylamine Hydrochloride] | – | 0.51 µM | 2.9 µM | –
4 | NC[C@H]1C[C@@H]1c1ccccc1O (relative stereo) [trans-[2-(2-Hydroxyphenyl)cyclopropyl]methylamine Hydrochloride] | 0.513 µM | 0.492 µM | 0.161 µM | –
5 | Cc1ccc([C@H]2C[C@@H]2CN)cc1C (relative stereo) [trans-[2-(3,4-Dimethylphenyl)cyclopropyl]methylamine Hydrochloride] | 2.39 µM | 0.012 µM | 0.035 µM | –
6 | CNC[C@H]1C[C@@H]1c1ccccc1 (relative stereo) [trans-N-Methyl-(2-phenylcyclopropylmethyl)amine] | – | > 10 µM | 0.634 µM | –
7 | NC[C@H]1C[C@@H]1c1ccc(C(F)(F)F)cc1 (relative stereo) [trans-[2-(4-Trifluoromethylphenyl)cyclopropyl]methylamine Hydrochloride] | – | > 1 µM | 0.779 µM | –
8 | Cc1cccc([C@H]2C[C@@H]2CN)c1 (relative stereo) [trans-[2-(3-Methylphenyl)cyclopropyl]methylamine Hydrochloride] | 0.585 µM | 0.065 µM | 0.0048 µM | Ki [4]: 5.4 µM; Ki [5]: 0.085 µM; Ki [6]: 1.85 µM; Ki [7]: > 10 µM; Ki [8]: 5.44 µM; Ki [9]: 0.268 µM
9 | NC[C@H]1C[C@@H]1c1cccc(Cl)c1 (relative stereo) [trans-[2-(3-Chlorophenyl)cyclopropyl]methylamine Hydrochloride] | 1.89 µM | 0.059 µM | 0.01 µM | –
10 | NC[C@H]1C[C@@H]1c1ccc(F)cc1 (relative stereo) [trans-[2-(4-Fluorophenyl)cyclopropyl]methylamine Hydrochloride] | 0.508 µM | 0.021 µM | 0.0054 µM | Ki [4]: 3.26 µM; Ki [5]: 0.089 µM; Ki [6]: 2.78 µM; Ki [7]: 6.78 µM; Ki [8]: 2.71 µM; Ki [9]: 0.242 µM
11 | NC[C@H]1C[C@H]1c1ccccc1 (racemic) [(+/-)-Cis-(2-Phenylcyclopropyl)methylamineHydrochloride] | – | > 10 µM | 3.02 µM | –
12 | NC[C@H]1C[C@@H]1c1ccc(Cl)cc1 (relative stereo) [trans-[2-(4-Chlorophenyl)cyclopropyl]methylamine Hydrochloride] | 4.48 µM | 0.404 µM | 0.076 µM | –
13 | NC[C@H]1C[C@@H]1c1cccc(C(F)(F)F)c1 (relative stereo) [trans-[2-(3-Trifluoromethylphenyl)cyclopropyl]methylamine Hydrochloride] | 1.49 µM | 0.077 µM | 0.03 µM | –
14 | Cc1cc([C@H]2C[C@@H]2CN)ccc1F (relative stereo) [trans-[2-(4-Fluoro-3-methylphenyl)cyclopropyl]methylamine Hydrochloride] | 0.235 µM | 0.0049 µM | 0.006 µM | –
15 | COc1ccc([C@H]2C[C@@H]2CN)cc1 (relative stereo) [trans-[2-(4-Methoxyphenyl)cyclopropyl]methylamine Hydrochloride] | – | – | 0.902 µM | –
16 | COc1ccccc1[C@H]1C[C@@H]1CN (relative stereo) [trans-[2-(2-Methoxyphenyl)cyclopropyl]methylamine Hydrochloride] | 2.17 µM | 0.199 µM | 0.026 µM | –
17 | Cc1ccc([C@H]2C[C@@H]2CN)c(Br)c1 (relative stereo) [trans-[2-(2-Bromo-4-methylphenyl)cyclopropyl]methylamine Hydrochloride] | 0.465 µM | 0.116 µM | 0.097 µM | –
18 | COc1cccc([C@H]2C[C@@H]2CN)c1 (relative stereo) [trans-[2-(3-Methoxyphenyl)cyclopropyl]methylamine Hydrochloride] | 0.613 µM | 0.075 µM | 0.016 µM | –
19 | NC[C@H]1C[C@@H]1c1ccccc1C(F)(F)F (relative stereo) [trans-[2-(2-Trifluoromethylphenyl)cyclopropyl]methylamine Hydrochloride] | – | 0.35 µM | 0.049 µM | –
20 | Cc1cccc(Cl)c1[C@H]1C[C@@H]1CN (relative stereo) [trans-[2-(2-Chloro-6-methylphenyl)cyclopropyl]methylamine Hydrochloride] | 0.726 µM | 0.007 µM | 0.0035 µM | –
21 | Cc1ccc(Cl)c([C@H]2C[C@@H]2CN)c1F [trans-[2-(6-Chloro-2-fluoro-3-methylphenyl)cyclopropyl]methylamineHydrochloride] | 0.33 µM | 0.116 µM | 0.013 µM | –
22 | Cc1ccc([C@H]2C[C@@H]2CN)cc1 (relative stereo) [trans-[2-(4-Methylphenyl)cyclopropyl]methylamine Hydrochloride] | 1.93 µM | 0.037 µM | 0.135 µM | –
23 | NC[C@H]1C[C@@H]1c1cccc(Br)c1 (relative stereo) [trans-[2-(3-Bromophenyl)cyclopropyl]methylamine Hydrochloride] | 1.68 µM | 0.141 µM | 0.014 µM | –
24 | NC[C@H]1C[C@@H]1c1ccc(Br)cc1 (relative stereo) [trans-[2-(4-Bromophenyl)cyclopropyl]methylamine Hydrochloride] | > 1 µM | 2.74 µM | 0.138 µM | –
25 | c1ccc(CNC[C@H]2C[C@@H]2c2ccccc2)cc1 (relative stereo) [trans-N-Benzyl-(2-phenylcyclopropylmethyl)amine] | – | – | 5.7 µM | –

The next lines start with results.

Row | EC50 [1] | EC50 [2] | EC50 [3] | Compound | also measured
26 | 0.578 µM | 0.028 µM | 0.009 µM | NC[C@H]1C[C@@H]1c1ccc(F)c(F)c1 (relative stereo) [trans-[2-(3,4-Difluorophenyl)cyclopropyl]methylamine Hydrochloride] | –
27 | > 1 µM | 3.34 µM | 0.087 µM | NC[C@H]1C[C@@H]1c1c(F)cccc1F (relative stereo) [trans-[2-(2,6-Difluorophenyl)cyclopropyl]methylamine Hydrochloride] | –
28 | 1.61 µM | 0.053 µM | 0.023 µM | Cc1ccccc1[C@H]1C[C@@H]1CN (relative stereo) [trans-[2-(2-Methylphenyl)cyclopropyl]methylamine Hydrochloride] | –
29 | 0.547 µM | 0.415 µM | 0.042 µM | NC[C@H]1C[C@@H]1c1ccc(F)cc1F [trans-[2-(2,4-Difluorophenyl)cyclopropyl]methylamine Hydrochloride] | –
30 | 0.349 µM | 0.014 µM | 0.011 µM | NC[C@H]1C[C@@H]1c1cccc(Cl)c1Cl (relative stereo) [trans-[2-(2,3-Dichlorophenyl)cyclopropyl]methylamine Hydrochloride] | –
31 | > 5 µM | 0.366 µM | 0.099 µM | NC[C@H]1C[C@@H]1c1cccc(F)c1F (relative stereo) [trans-[2-(2,3-Difluorophenyl)cyclopropyl]methylamine Hydrochloride] | –
32 | 0.36 µM | 0.0084 µM | 0.007 µM | Cc1cccc([C@H]2C[C@@H]2CN)c1C (relative stereo) [trans-[2-(2,3-Dimethylphenyl)cyclopropyl]methylamine Hydrochloride] | –
33 | 0.051 µM | 0.083 µM | 0.018 µM | NC[C@H]1C[C@@H]1c1ccc(Cl)cc1Cl (relative stereo) [trans-[2-(2,4-Dichlorophenyl)cyclopropyl]methylamine Hydrochloride] | –
34 | 0.168 µM | 0.032 µM | 0.0051 µM | NC[C@H]1C[C@@H]1c1ccccc1Cl (relative stereo) [trans-[2-(2-Chlorophenyl)cyclopropyl]methylamine Hydrochloride] | –
35 | – | 0.069 µM | 0.029 µM | NC[C@H]1C[C@@H]1c1ccccc1F [trans-[2-(2-Fluorophenyl)cyclopropyl]methylamine Hydrochloride] | –
36 | 0.774 µM | 0.459 µM | 0.128 µM | NC[C@H]1C[C@@H]1c1ccc(Cl)cc1F (relative stereo) [trans-[2-(4-Chloro-2-fluorophenyl)cyclopropyl]methylamine Hydrochloride] | –

Source: BindingDB's records for doi:10.1021/jm801354e (University of Illinois At Chicago, 2009)
